From US20230106032A1, “IMIDAZOTRIAZINES ACTING ON CANCER VIA INHIBITION OF CDK12” (Bayer Aktiengesellschaft, priority 2020, published 2023)

Assays:
[1] = target: T1, CDK9/CycT1 (Homo sapiens, UniProt P50750); assay: CDK9/CycT1 high ATP kinase assay (TR-FRET, 2 mM ATP); type: biochemical; settings: read-out: CDK9/CyclinT1, 2 mM ATP (high ATP) IC50-[mol/l] (median)
T1 construct: Recombinant full-length His-tagged human CDK9 and CycT1, expressed in insect cells; His; purchased Life Technologies PV4131; host or cells: insect cells
T1 sequence (P50750 whole entry): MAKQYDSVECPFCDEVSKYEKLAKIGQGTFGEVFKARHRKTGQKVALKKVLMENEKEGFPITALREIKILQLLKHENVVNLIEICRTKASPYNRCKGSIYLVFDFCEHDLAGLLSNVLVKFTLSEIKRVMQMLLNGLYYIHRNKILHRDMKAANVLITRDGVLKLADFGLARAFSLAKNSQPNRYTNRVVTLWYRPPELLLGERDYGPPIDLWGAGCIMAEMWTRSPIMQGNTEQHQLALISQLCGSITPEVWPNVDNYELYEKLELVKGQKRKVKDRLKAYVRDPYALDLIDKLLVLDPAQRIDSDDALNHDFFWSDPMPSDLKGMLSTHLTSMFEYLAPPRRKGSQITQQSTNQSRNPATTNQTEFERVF
T1 sequence (O60563 whole entry partner): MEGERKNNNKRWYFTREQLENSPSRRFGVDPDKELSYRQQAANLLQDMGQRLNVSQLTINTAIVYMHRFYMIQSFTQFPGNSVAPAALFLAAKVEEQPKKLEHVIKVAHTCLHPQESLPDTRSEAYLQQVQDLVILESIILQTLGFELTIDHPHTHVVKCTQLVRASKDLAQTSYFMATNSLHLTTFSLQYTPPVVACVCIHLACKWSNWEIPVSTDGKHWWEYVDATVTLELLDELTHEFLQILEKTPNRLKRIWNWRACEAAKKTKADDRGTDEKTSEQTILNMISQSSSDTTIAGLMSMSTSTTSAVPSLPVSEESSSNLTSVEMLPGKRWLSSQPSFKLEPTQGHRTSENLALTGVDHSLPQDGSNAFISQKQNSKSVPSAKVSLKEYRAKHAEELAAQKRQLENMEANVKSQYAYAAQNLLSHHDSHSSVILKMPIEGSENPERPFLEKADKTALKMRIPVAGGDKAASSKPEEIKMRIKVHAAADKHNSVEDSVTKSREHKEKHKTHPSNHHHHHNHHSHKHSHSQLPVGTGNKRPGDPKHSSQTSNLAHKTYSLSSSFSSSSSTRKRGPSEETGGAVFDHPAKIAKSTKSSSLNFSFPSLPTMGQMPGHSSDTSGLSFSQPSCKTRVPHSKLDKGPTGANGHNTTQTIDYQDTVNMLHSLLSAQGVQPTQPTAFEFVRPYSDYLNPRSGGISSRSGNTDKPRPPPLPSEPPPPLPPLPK
Experimental: CDK9/CycT1-inhibitory activity of compounds of the present invention at a high ATP concentration after preincubation of enzyme and test compounds was quantified employing the CDK9/CycT1 TR-FRET assay as described in the following paragraphs.
Recombinant full-length His-tagged human CDK9 and CycT1, expressed in insect cells and purified by Ni-NTA affinity chromatography, were purchased from Life Technologies (Cat. No PV4131). As substrate for the kinase reaction biotinylated peptide biotin-Ttds-YISPLKSPYKISEG (C-terminus in amide form) was used which can be purchased e.g. form the company JERINI peptide technologies (Berlin, Germany).
For the assay 50 nanoL of a 100 fold concentrated solution of the test compound in DMSO was pipetted into either a black low volume 384 well microtiter plate or a black 1536 well microtiter plate (both Greiner Bio-One, Frickenhausen, Germany), 2 microL of a solution of CDK9/CycT1 in aqueous assay buffer [50 millimol/L Tris/HCl pH 8.0, 10 millimol/L MgCl2, 1.0 millimol/L dithiothreitol, 0.1 millimol/L sodium ortho-vanadate, 0.01% (v/v) Nonidet-P40 (Sigma)] were added and the mixture was incubated for 15 min at 22° C. to allow pre-binding of the test compounds to the enzyme before the start of the kinase reaction. Then the kinase reaction was started by the addition of 3 microL of a solution of adenosine-tri-phosphate (ATP, 3.3 millimol/L=> final conc. in the 5 microL assay volume is 2 millimol/L) and substrate (1.25 micromol/L=> final conc. in the 5 microL assay volume is 0.75 micromol/L) in assay buffer and the resulting mixture was incubated for a reaction time of 25 min at 22° C. The concentration of CDK9/CycT1 was adjusted depending of the activity of the enzyme lot and was chosen appropriate to have the assay in the linear range, typical concentrations were in the range of 0.5 microg/ml. The reaction was stopped by the addition of 3 microL of a solution of TR-FRET detection reagents (0.33 micromol/L streptavidine-XL665 [Cisbio Bioassays, Codolet, France] and 1.67 nanomol/L anti-RB(pSer807/pSer8l 1)-antibody from BD Pharmingen [#558389] and 2 nanomol/L LANCE EU-W1024 labeled anti-mouse IgG antibody [Perkin-Elmer, product no. AD0077]) in an aqueous EDTA-solution (167 millimol/L EDTA, 0.2% (w/v) bovine serum albumin in 100 millimol/L HEPES pH 7.5).
(§1) The resulting mixture was incubated 1 h at 22° C. to allow the formation of complex between the phosphorylated biotinylated peptide and the detection reagents. Subsequently the amount of phosphorylated substrate was evaluated by measurement of the resonance energy transfer from the Eu-chelate to the streptavidine-XL. Therefore, the fluorescence emissions at 620 nm and 665 nm after excitation at 350 nm was measured in a TR-FRET reader, e.g. a Pherastar (BMG Labtechnologies, Offenburg, Germany) or a Viewlux (Perkin-Elmer). The ratio of the emissions at 665 nm and at […] was taken as the measure for the amount of phosphorylated substrate. The data were normalised (enzyme reaction without inhibitor=0% inhibition, all other assay components but no enzyme=100% inhibition).

[2] = target: T2, CDK12/CycK (Homo sapiens, UniProt Q9NYV4); assay: CDK12/CycK high ATP kinase assay (TR-FRET, 2 mM ATP); type: biochemical; settings: read-out: CDK12/CyclinK, 2 mM ATP (high ATP), IC50-[mol/l] (median)
T2 construct: His-CDK12 (aa Q696-S1082); made in house; host or cells: Hi-5 insect cells (baculovirus co-infection with CAK1)
T2 sequence (Q9NYV4 with tags, fused parts or gaps): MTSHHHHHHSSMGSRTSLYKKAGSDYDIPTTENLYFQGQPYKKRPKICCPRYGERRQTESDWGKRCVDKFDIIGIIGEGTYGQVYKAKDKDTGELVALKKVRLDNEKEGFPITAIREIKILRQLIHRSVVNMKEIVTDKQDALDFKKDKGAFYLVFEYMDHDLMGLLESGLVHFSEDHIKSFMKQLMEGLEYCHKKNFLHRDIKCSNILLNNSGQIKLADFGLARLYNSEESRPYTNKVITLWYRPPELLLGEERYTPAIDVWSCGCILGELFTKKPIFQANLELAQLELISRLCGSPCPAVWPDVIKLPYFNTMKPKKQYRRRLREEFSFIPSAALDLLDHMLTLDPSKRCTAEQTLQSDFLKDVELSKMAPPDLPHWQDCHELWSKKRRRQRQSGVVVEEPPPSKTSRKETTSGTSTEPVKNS
T2 sequence (O75909 with tags, fused parts or gaps partner limits assumed): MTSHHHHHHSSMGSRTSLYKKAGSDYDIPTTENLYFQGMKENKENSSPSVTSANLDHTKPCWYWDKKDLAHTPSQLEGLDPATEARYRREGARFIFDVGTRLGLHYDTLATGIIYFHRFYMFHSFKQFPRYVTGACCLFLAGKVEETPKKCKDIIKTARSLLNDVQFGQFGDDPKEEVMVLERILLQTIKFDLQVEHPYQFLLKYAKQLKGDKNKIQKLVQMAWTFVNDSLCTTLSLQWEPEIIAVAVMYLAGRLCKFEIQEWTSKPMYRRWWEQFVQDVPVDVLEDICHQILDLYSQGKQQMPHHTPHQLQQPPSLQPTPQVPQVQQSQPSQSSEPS
Description: In the context of the present invention, the term “IC50 CDK12 hATP” refers to the IC50 values obtained according to the assay described in this section (2.2) herein below, i.e. the IC50 values for the inhibition of CDK12 at high ATP.
CDK12/CycK-inhibitory activity of compounds of the present invention at 2 millimol/L adenosine-tri-phosphate (ATP) was quantified employing the TR-FRET (TR-FRET=Time Resolved Fluorescence Energy Transfer) based CDK12/CycK activity inhibition assay as described in the following paragraphs.
A complex of human recombinant CDK12 and human recombinant CycK (both N-terminally His-tagged, expression and purification as described above) was used as enzyme. As substrate for the kinase reaction biotinylated peptide biotin-Ahx-KFELLPTPPLSPSRRSGL (C-terminus in amid form) was used which can be purchased e.g. form the company Biosyntan (Berlin-Buch, Germany).
For the assay 50 nanoL of a 100 fold concentrated solution of the test compound in DMSO was pipetted into either a black low volume 384 well microtiter plate or a black 1536 well microtiter plate (both Greiner Bio-One, Frickenhausen, Germany), 2 microL of a solution of CDK12/CycK in aqueous assay buffer [25 millimol/L HEPES pH 7.5, 20 millimol/L MgCl2, 5 millimol/L ß-glycerophosphate, 2 millimol/L EGTA, 1.0 millimol/L dithiothreitol, 0.01% (v/v) Nonidet-P40 (Sigma), 0.01% (w/v) bovine serum albumin] were added and the mixture was incubated for 15 min at 22° C. to allow pre-binding of the test compounds to the enzyme before the start of the kinase reaction. Then the kinase reaction was started by the addition of 3 microL of a solution ATP (3.33 millimol/L=> final conc. in the 5 microL assay volume is 2 millimol/L) and substrate (1.67 micromol/L=> final conc. in the 5 microL assay volume is 1 micromol/L) in assay buffer and the resulting mixture was incubated for a reaction time of 60 min at 22° C. The concentration of CDK12/CycK was adjusted depending of the activity of the enzyme lot and was chosen appropriate to have the assay in the linear range, typical concentrations were about 0.75 nanomol/L. The reaction was stopped by the addition of 3 microL of a solution of TR-FRET detection reagents (125 nanomol/L streptavidine-XL665 [Cisbio Bioassays, Codolet, France] and 0.67 nanomol/L anti-Phospho-c-Myc (Ser 62) (E1J4K)-antibody from Cell Signalling [#13748] and 2 nanomol/L LANCE EU-W1024 labeled anti-rabbit IgG antibody [Perkin-Elmer, product no. 0083]) in an aqueous EDTA-solution (133 millimol/L EDTA, 0.27% (w/v) bovine serum albumin in 66.7 millimol/L HEPES pH 7.5).
as §1, with “Pherastar FS” for “Pherastar”

Structure (SMILES) | IC50 [1] | IC50 [2]
COc1cccc2[nH]c(CNc3nc(N4CCN(C)CC4)nn4c(Br)cnc34)nc12.O=CO [Example 16, 7-bromo-N-[(4-methoxy-1H-benzimidazol-2-yl)methyl]-2-(4-methylpiperazin-1-yl)imidazo[2,1-f][1,2,4]triazin-4-amine Formate (1/1)] | > 20 µM | 6.29 µM
Fc1ccc2[nH]c(CNc3nc(N4CCOCC4)nn4c(Br)cnc34)nc2c1F [Example 7, 7-bromo-N-[(4,5-difluoro-1H-benzimidazol-2-yl)methyl]-2-(morpholin-4-yl)imidazo[2,1-f][1,2,4]triazin-4-amine] | 9.06 µM | 1.26 µM
Fc1cccc(-c2cnc3c(NCc4nc5ccccc5[nH]4)nc(N4CCOCC4)nn23)c1 [Example 3, N-[(1H-benzimidazol-2-yl)methyl]-7-(3-fluorophenyl)-2-(morpholin-4-yl)imidazo[2,1-f][1,2,4]triazin-4-amine] | > 20 µM | > 20 µM
CN1CCN(c2nc(NCc3nc4ccccc4[nH]3)c3ncc(C(F)(F)F)n3n2)CC1 [Example 25, N-[(1H-benzimidazol-2-yl)methyl]-2-(4-methylpiperazin-1-yl)-7-(trifluoromethyl)imidazo[2,1-f][1,2,4]triazin-4-amine] | > 20 µM | 10.8 µM
COc1cccc2[nH]c(CNc3nc(N4CCNCC4)nn4c(Br)cnc34)nc12 [Example 15, 7-bromo-N-[(4-methoxy-1H-benzimidazol-2-yl)methyl]-2-(piperazin-1-yl)imidazo[2,1-f][1,2,4]triazin-4-amine] | > 20 µM | 2.09 µM
COc1cccc2[nH]c(CNc3nc(N4C[C@@H](C)N[C@@H](C)C4)nn4c(Br)cnc34)nc12 [Example 14, 7-bromo-2-[rel-(3R,5S)-3,5-dimethylpiperazin-1-yl]-N-[(4-methoxy-1H-benzimidazol-2-yl)methyl]imidazo[2,1-f][1,2,4]triazin-4-amine] | > 18.1 µM | 2.01 µM
Fc1ccc2[nH]c(CNc3nc(N4CCOCC4)nn4c(Br)cnc34)nc2c1 [Example 20, 7-bromo-N-[(5-fluoro-1H-benzimidazol-2-yl)methyl]-2-(morpholin-4-yl)imidazo[2,1-f][1,2,4]triazin-4-amine] | > 20 µM | 3.46 µM
C[C@@H]1CN(c2nc(NCc3nc4c(F)c(F)ccc4[nH]3)c3ncc(Br)n3n2)C[C@H](C)O1 [Example 5, 7-bromo-N-[(4,5-difluoro-1H-benzimidazol-2-yl)methyl]-2-[rel-(2R,6S)-2,6-dimethylmorpholin-4-yl]imidazo[2,1-f][1,2,4]triazin-4-amine] | 3.47 µM | 0.137 µM
C[C@@H]1CN(c2nc(NCc3nc4c(F)c(F)ccc4[nH]3)c3ncc(Br)n3n2)C[C@H](C)N1 [Example 11, 7-bromo-N-[(4,5-difluoro-1H-benzimidazol-2-yl)methyl]-2-[rel-(3R,5S)-3,5-dimethylpiperazin-1-yl]imidazo[2,1-f][1,2,4]triazin-4-amine] | 10.8 µM | 0.579 µM

Results, then the compound that gave them:

IC50 [1] | IC50 [2] | Structure (SMILES)
> 20 µM | 4.71 µM | Fc1cccc2[nH]c(CNc3nc(N4CCOCC4)nn4c(Br)cnc34)nc12 [Example 12, 7-bromo-N-[(4-fluoro-1H-benzimidazol-2-yl)methyl]-2-(morpholin-4-yl)imidazo[2,1-f][1,2,4]triazin-4-amine]
> 19.7 µM | 2.56 µM | Fc1cccc2[nH]c(CNc3nc(N4CCNCC4)nn4c(Br)cnc34)nc12 [Example 22, 7-bromo-N-[(4-fluoro-1H-benzimidazol-2-yl)methyl]-2-(piperazin-1-yl)imidazo[2,1-f][1,2,4]triazin-4-amine]
6.74 µM | 0.0107 µM | Fc1ccc2[nH]c(CNc3nc(N4CCOCC4)nn4c(C(F)(F)F)cnc34)nc2c1F [Example 27, N-[(4,5-difluoro-1H-benzimidazol-2-yl)methyl]-2-(morpholin-4-yl)-7-(trifluoromethyl)imidazo[2,1-f][1,2,4]triazin-4-amine]
> 20 µM | 5.65 µM | Brc1cnc2c(NCc3nc4ccccc4[nH]3)nc(N3CCNCC3)nn12 [Example 8, N-[(1H-benzimidazol-2-yl)methyl]-7-bromo-2-(piperazin-1-yl)imidazo[2,1-f][1,2,4]triazin-4-amine]
> 20 µM | 0.172 µM | FC(F)(F)c1cnc2c(NCc3nc4ccccc4[nH]3)nc(N3CCOCC3)nn12 [Example 26, N-[(1H-benzimidazol-2-yl)methyl]-2-(morpholin-4-yl)-7-(trifluoromethyl)imidazo[2,1-f][1,2,4]triazin-4-amine]
